#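 These data come from cells grown in 96-well plates and exposed to compound for 48 hours at five concentrations. GI50 = concentration required for 50% inhibition of growth. TGI marks complete inhibition of growth.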
# Assays:
# Assay in all cases: growth of human tumour cells (NCI), 48 h
# RPMI-8226 leukemia = test system: RPMI-8226 leukemia
# SNB-75 CNS = test system: SNB-75 CNS
# SR leukemia = test system: SR leukemia
# LOX IMVI melanoma = test system: LOX IMVI melanoma
# HCT-116 colon = test system: HCT-116 colon
# SK-OV-3 ovarian = test system: SK-OV-3 ovarian
# 786-0 renal = test system: 786-0 renal
# M14 melanoma = test system: M14 melanoma
# CCRF-CEM leukemia = test system: CCRF-CEM leukemia
# UACC-257 melanoma = test system: UACC-257 melanoma
# U251 CNS = test system: U251 CNS
# PC-3 prostate = test system: PC-3 prostate
# SK-MEL-2 melanoma = test system: SK-MEL-2 melanoma
# HOP-92 NSCLC = test system: HOP-92 NSCLC
# UO-31 renal = test system: UO-31 renal
# UACC-62 melanoma = test system: UACC-62 melanoma
# OVCAR-5 ovarian = test system: OVCAR-5 ovarian
# NCI/ADR-RES ovarian = test system: NCI/ADR-RES ovarian
# MCF7 breast = test system: MCF7 breast
# DU-145 prostate = test system: DU-145 prostate
# A549 NSCLC = test system: A549 NSCLC
# OVCAR-3 ovarian = test system: OVCAR-3 ovarian
# HOP-62 NSCLC = test system: HOP-62 NSCLC
# SF-268 CNS = test system: SF-268 CNS
# SN12C renal = test system: SN12C renal
# EKVX NSCLC = test system: EKVX NSCLC
# ACHN renal = test system: ACHN renal
# HL-60(TB) leukemia = test system: HL-60(TB) leukemia
# MDA-MB-231 breast = test system: MDA-MB-231 breast
# NCI-H23 lung = test system: NCI-H23 lung
# IGROV1 ovarian = test system: IGROV1 ovarian
# A498 renal = test system: A498 renal
# HT29 colon = test system: HT29 colon
# SK-MEL-28 melanoma = test system: SK-MEL-28 melanoma
# NCI-H460 lung = test system: NCI-H460 lung
# HCC-2998 colon = test system: HCC-2998 colon
# CAKI-1 renal = test system: CAKI-1 renal
# SF-539 CNS = test system: SF-539 CNS
# K-562 leukemia = test system: K-562 leukemia
# MDA-MB-435 = test system: MDA-MB-435
# OVCAR-8 ovarian = test system: OVCAR-8 ovarian
# SK-MEL-5 melanoma = test system: SK-MEL-5 melanoma
# SNB-19 CNS = test system: SNB-19 CNS
# TK-10 renal = test system: TK-10 renal
# NCI-H226 lung = test system: NCI-H226 lung
# COLO 205 colon = test system: COLO 205 colon
# SF-295 CNS = test system: SF-295 CNS
# MOLT-4 leukemia = test system: MOLT-4 leukemia
# NCI-H522 lung = test system: NCI-H522 lung
# KM12 colon = test system: KM12 colon
# RXF 393 renal = test system: RXF 393 renal
# HS 578T breast = test system: HS 578T breast
# OVCAR-4 ovarian = test system: OVCAR-4 ovarian
# T-47D breast = test system: T-47D breast
# SW-620 colon = test system: SW-620 colon
# MALME-3M melanoma = test system: MALME-3M melanoma
# BT-549 breast = test system: BT-549 breast
# HCT-15 colon = test system: HCT-15 colon
# MDA-N = test system: MDA-N
smiles,measurement,setting,value
COc1ccc(-c2nnc(Nc3nc(O)c(C4=c5cc(Br)ccc5=NC4=O)s3)o2)cc1,GI50,RPMI-8226 leukemia,17.3 µM
same,TGI,RPMI-8226 leukemia,> 66.5 µM
same,GI50,SNB-75 CNS,21.6 µM
same,TGI,SNB-75 CNS,75.2 µM
same,GI50,SR leukemia,1.6 µM
same,TGI,SR leukemia,35.9 µM
same,GI50,LOX IMVI melanoma,19.8 µM
same,TGI,LOX IMVI melanoma,62 µM
same,GI50,HCT-116 colon,25.5 µM
same,TGI,HCT-116 colon,97.7 µM
same,GI50,SK-OV-3 ovarian,52 µM
same,TGI,SK-OV-3 ovarian,> 100 µM
same,GI50,786-0 renal,25.1 µM
same,TGI,786-0 renal,> 77.8 µM
same,GI50,M14 melanoma,20.1 µM
same,TGI,M14 melanoma,63.7 µM
same,GI50,CCRF-CEM leukemia,6.79 µM
same,TGI,CCRF-CEM leukemia,32.7 µM
same,GI50,UACC-257 melanoma,7.79 µM
same,TGI,UACC-257 melanoma,56.9 µM
same,GI50,U251 CNS,15.4 µM
same,TGI,U251 CNS,30.7 µM
same,GI50,PC-3 prostate,18.1 µM
same,TGI,PC-3 prostate,> 76.7 µM
same,GI50,SK-MEL-2 melanoma,17.3 µM
same,TGI,SK-MEL-2 melanoma,48.8 µM
same,GI50,HOP-92 NSCLC,21.2 µM
same,TGI,HOP-92 NSCLC,65.6 µM
same,GI50,UO-31 renal,19.4 µM
same,TGI,UO-31 renal,63.1 µM
same,GI50,UACC-62 melanoma,1.08 µM
same,TGI,UACC-62 melanoma,26.7 µM
same,GI50,OVCAR-5 ovarian,26.7 µM
same,TGI,OVCAR-5 ovarian,80.3 µM
same,GI50,NCI/ADR-RES ovarian,22.5 µM
same,TGI,NCI/ADR-RES ovarian,> 71.8 µM
same,GI50,MCF7 breast,> 43.9 µM
same,TGI,MCF7 breast,> 100 µM
same,GI50,DU-145 prostate,16.9 µM
same,TGI,DU-145 prostate,> 56.3 µM
same,GI50,A549 NSCLC,26.8 µM
same,TGI,A549 NSCLC,> 100 µM
same,GI50,OVCAR-3 ovarian,15.5 µM
same,TGI,OVCAR-3 ovarian,40.3 µM
same,GI50,HOP-62 NSCLC,24 µM
same,TGI,HOP-62 NSCLC,> 71.1 µM
same,GI50,SF-268 CNS,47.5 µM
same,TGI,SF-268 CNS,> 100 µM
same,GI50,SN12C renal,15.5 µM
same,TGI,SN12C renal,52.8 µM
same,GI50,EKVX NSCLC,9.89 µM
same,TGI,EKVX NSCLC,> 55.8 µM
same,TGI,ACHN renal,38.8 µM
same,GI50,HL-60(TB) leukemia,0.633 µM
same,TGI,HL-60(TB) leukemia,9.89 µM
same,GI50,MDA-MB-231 breast,0.421 µM
same,TGI,MDA-MB-231 breast,10 µM
same,GI50,NCI-H23 lung,23.6 µM
same,TGI,NCI-H23 lung,> 69.3 µM
same,GI50,IGROV1 ovarian,2.68 µM
same,TGI,IGROV1 ovarian,23.8 µM
same,GI50,A498 renal,12.4 µM
same,TGI,A498 renal,46.4 µM
same,GI50,HT29 colon,35.4 µM
same,TGI,HT29 colon,> 100 µM
same,GI50,SK-MEL-28 melanoma,29 µM
same,TGI,SK-MEL-28 melanoma,> 100 µM
same,GI50,NCI-H460 lung,22.6 µM
same,TGI,NCI-H460 lung,> 100 µM
same,GI50,HCC-2998 colon,1.34 µM
same,TGI,HCC-2998 colon,33.8 µM
same,GI50,CAKI-1 renal,17.2 µM
same,TGI,CAKI-1 renal,50.1 µM
same,GI50,SF-539 CNS,17.9 µM
same,TGI,SF-539 CNS,41.3 µM
same,GI50,K-562 leukemia,20.6 µM
same,TGI,K-562 leukemia,75.2 µM
same,GI50,MDA-MB-435,23.8 µM
same,TGI,MDA-MB-435,57.7 µM
same,GI50,OVCAR-8 ovarian,19.3 µM
same,TGI,OVCAR-8 ovarian,> 76.4 µM
same,GI50,SK-MEL-5 melanoma,18.3 µM
same,TGI,SK-MEL-5 melanoma,> 59.5 µM
same,GI50,SNB-19 CNS,28.1 µM
same,TGI,SNB-19 CNS,> 83.4 µM
same,GI50,TK-10 renal,18.9 µM
same,TGI,TK-10 renal,51 µM
same,GI50,NCI-H226 lung,1.02 µM
same,TGI,NCI-H226 lung,8.35 µM
same,GI50,COLO 205 colon,32 µM
same,TGI,COLO 205 colon,> 100 µM
same,GI50,SF-295 CNS,20.6 µM
same,TGI,SF-295 CNS,60.4 µM
same,GI50,MOLT-4 leukemia,3.51 µM
same,TGI,MOLT-4 leukemia,27.6 µM
same,GI50,NCI-H522 lung,19.8 µM
same,TGI,NCI-H522 lung,> 74.2 µM
same,GI50,KM12 colon,3.54 µM
same,TGI,KM12 colon,23.5 µM
same,GI50,RXF 393 renal,5.48 µM
same,TGI,RXF 393 renal,> 55.6 µM
same,GI50,HS 578T breast,6.92 µM
same,TGI,HS 578T breast,22.5 µM
same,GI50,OVCAR-4 ovarian,27.5 µM
same,TGI,OVCAR-4 ovarian,> 100 µM
same,GI50,T-47D breast,41.9 µM
same,TGI,T-47D breast,> 100 µM
same,GI50,SW-620 colon,14.2 µM
same,TGI,SW-620 colon,> 100 µM
same,TGI,MALME-3M melanoma,3.53 µM
same,GI50,BT-549 breast,6.49 µM
same,TGI,BT-549 breast,27.9 µM
same,GI50,HCT-15 colon,18.4 µM
same,TGI,HCT-15 colon,> 63 µM
O=c1c2ccccc2nc(N/N=C/c2ccc(Cl)cc2)n1-c1ccccc1,TGI,SR leukemia,> 100 µM
same,TGI,LOX IMVI melanoma,> 100 µM
same,TGI,HCT-116 colon,> 100 µM
same,TGI,SK-OV-3 ovarian,> 100 µM
same,TGI,786-0 renal,> 100 µM
same,TGI,M14 melanoma,> 100 µM
same,TGI,CCRF-CEM leukemia,> 100 µM
same,TGI,UACC-257 melanoma,> 100 µM
same,TGI,U251 CNS,> 100 µM
same,TGI,PC-3 prostate,> 100 µM
same,TGI,SK-MEL-2 melanoma,77.2 µM
same,TGI,HOP-92 NSCLC,> 100 µM
same,TGI,UO-31 renal,88 µM
same,TGI,UACC-62 melanoma,> 100 µM
same,TGI,OVCAR-5 ovarian,> 100 µM
same,TGI,NCI/ADR-RES ovarian,> 100 µM
same,TGI,MCF7 breast,> 100 µM
same,TGI,DU-145 prostate,> 100 µM
same,TGI,A549 NSCLC,> 100 µM
same,TGI,OVCAR-3 ovarian,> 100 µM
same,TGI,HOP-62 NSCLC,> 100 µM
same,TGI,SF-268 CNS,> 100 µM
same,TGI,SN12C renal,> 100 µM
same,TGI,EKVX NSCLC,> 100 µM
same,TGI,ACHN renal,> 100 µM
same,TGI,HL-60(TB) leukemia,> 100 µM
same,TGI,MDA-MB-231 breast,> 100 µM
same,TGI,NCI-H23 lung,> 100 µM
same,TGI,IGROV1 ovarian,> 100 µM
same,TGI,A498 renal,> 100 µM
same,TGI,HT29 colon,> 100 µM
same,TGI,SK-MEL-28 melanoma,> 100 µM
same,TGI,NCI-H460 lung,> 100 µM
same,TGI,HCC-2998 colon,> 100 µM
same,TGI,CAKI-1 renal,> 100 µM
same,TGI,SF-539 CNS,> 100 µM
same,TGI,K-562 leukemia,> 100 µM
same,TGI,MDA-MB-435,> 100 µM
same,TGI,OVCAR-8 ovarian,> 100 µM
same,TGI,SK-MEL-5 melanoma,> 100 µM
same,TGI,SNB-19 CNS,> 100 µM
same,TGI,TK-10 renal,> 100 µM
same,TGI,NCI-H226 lung,> 100 µM
same,TGI,COLO 205 colon,> 100 µM
same,TGI,SF-295 CNS,> 100 µM
same,TGI,MOLT-4 leukemia,> 100 µM
same,TGI,NCI-H522 lung,> 100 µM
same,TGI,RXF 393 renal,> 100 µM
same,TGI,OVCAR-4 ovarian,> 100 µM
same,TGI,T-47D breast,> 100 µM
same,TGI,SW-620 colon,> 100 µM
same,TGI,MALME-3M melanoma,> 100 µM
same,TGI,HCT-15 colon,> 100 µM
same,TGI,MDA-N,> 100 µM
